Earlier results as cited in patent US20050119246A1, “1H-pyrazolyl derivative compounds, for use in diseases associated with the 5-ht2c receptor” (Bayer Pharmaceuticals Corporation, priority 2001, published 2005).

How the values were obtained:
[1] = biological target: 5-HT2 receptors; conditions: background statement
[2] = biological target: T1, 5-HT2C receptor (Homo sapiens, UniProt P28335); conditions: background statement; comparator receptors not named
T1 sequence (P28335 33-458): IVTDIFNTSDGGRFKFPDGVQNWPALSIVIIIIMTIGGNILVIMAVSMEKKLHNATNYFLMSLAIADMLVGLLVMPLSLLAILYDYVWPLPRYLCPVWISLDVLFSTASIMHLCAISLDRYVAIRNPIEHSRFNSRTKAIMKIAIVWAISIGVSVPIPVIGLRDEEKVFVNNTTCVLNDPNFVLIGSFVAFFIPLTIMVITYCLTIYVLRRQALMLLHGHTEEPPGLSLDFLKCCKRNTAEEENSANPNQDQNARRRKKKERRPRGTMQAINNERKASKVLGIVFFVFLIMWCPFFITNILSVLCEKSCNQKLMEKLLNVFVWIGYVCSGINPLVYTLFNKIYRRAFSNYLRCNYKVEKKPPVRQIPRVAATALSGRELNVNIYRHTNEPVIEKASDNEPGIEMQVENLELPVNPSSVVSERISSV

SMILES	pKi for the 5-HT2 receptors [1]	selectivity for the 5-HT2 receptors over 5-HT1 receptors [1]	selectivity of 5-HT2C receptor antagonist [2]
Cc1nc2sccn2c(=O)c1CCN1CCC(=C(c2ccc(F)cc2)c2ccc(F)cc2)CC1 [ritanserin]	8.9	10,000 fold	
Cc1cc2c(cc1Cl)N(C(=O)Nc1ccc(Oc3cccnc3C)nc1)CC2 [SB-242084]			at least 100 fold
